Where “and” joins values, the source holds several entries; their conditions need not be identical. Equal entries are not always repeated.
Assays:
[1] = Absorption maximum in water; type: physicochemical
Text: The absorption maxima and the results of the tests (B) to (D) are reported in Table 6 for the dyes of the invention and the comparative values for previously known disazo dyes in Table 7.

[2] = Dye solubility in deionised water; type: physicochemical; details: for Solubility: deionised water, stirred 1 hour at 50° C., cooled to 20° C.; for Solubility, comparison in words: versus previously known black disazo dyes 12 and 14
Description: The dye was dispersed or solubilised in deionised water and the dispersion or solution was stirred for one hour at 50° C. Then the mixture was cooled down to 20° C., centrifuged and filtered. The solubility of the dye was calculated a) from UV/VIS spectral data of the mother liquor (solution) or b) based on the dried filter residue.

With `COc1cc(N=Nc2cccc(S(=O)(=O)O)c2)c(C)cc1N=Nc1c(S(=O)(=O)O)cc2ccc(NCCS(=O)(=O)O)cc2c1O` [Compound 1] the “HD max in water” value [1] was 569 nm.
With `Cc1cc(N=Nc2c(S(=O)(=O)O)cc3ccc(NCCS(=O)(=O)O)cc3c2O)c(OCCO)cc1N=Nc1cccc(S(=O)(=O)O)c1` [Compound 2] the Solubility [2] was greater than 20 g per 100 ml and the “Solubility, comparison in words” value [2] was “much higher solubility”.
With `COc1cc(N=Nc2cc(S(=O)(=O)O)c3cccc(S(=O)(=O)O)c3c2)c(C)cc1N=Nc1c(S(=O)(=O)O)cc2ccc(NCCS(=O)(=O)O)cc2c1O` [Compound 4] the “HD max in water” value [1] was 584 nm, the Solubility [2] was greater than 20 g per 100 ml and the “Solubility, comparison in words” value [2] was “much higher solubility”.
With `Cc1cc(N=Nc2c(S(=O)(=O)O)cc3ccc(NCCS(=O)(=O)O)cc3c2O)c(OCCO)cc1N=Nc1cc(S(=O)(=O)O)c2cccc(S(=O)(=O)O)c2c1` [Compound 5] the “HD max in water” value [1] was 583 nm.
For `COc1cc(N=Nc2ccc3c(S(=O)(=O)O)cc(S(=O)(=O)O)cc3c2)c(C)cc1N=Nc1c(S(=O)(=O)O)cc2ccc(NCCS(=O)(=O)O)cc2c1O` [Compound 6], the “HD max in water” value [1] was 575 nm, the Solubility [2] was greater than 20 g per 100 ml and the “Solubility, comparison in words” value [2] was “much higher solubility”.
In the case of `COc1cc(N=Nc2c(S(=O)(=O)O)cc3ccc(NCCS(=O)(=O)O)cc3c2O)c(OC)cc1N=Nc1cc(S(=O)(=O)O)c2cccc(S(=O)(=O)O)c2c1` [Compound 7], the “HD max in water” value [1] is reported as 595 nm and 491 nm.
With `Cc1cc(N=Nc2c(S(=O)(=O)O)cc3ccc(Nc4cccc(S(=O)(=O)O)c4)cc3c2O)ccc1N=Nc1cc(S(=O)(=O)O)c2cccc(S(=O)(=O)O)c2c1` [Compound 10, reference compound] the “HD max in water” value [1] was 559 nm.
With `COc1cc(N=Nc2cccc(C(=O)O)c2)c(NC(C)=O)cc1N=Nc1c(S(=O)(=O)O)cc2ccc(N)cc2c1O` [Compound 11, reference compound] the “HD max in water” value [1] was 557 nm.
With `COc1cc(N=Nc2cccc(C(=O)O)c2)c(NC(C)=O)cc1N=Nc1c(S(=O)(=O)O)cc2ccc(Nc3ccc(C(=O)O)cc3)cc2c1O` [Compound 12, reference compound] the “HD max in water” value [1] was 498 nm and the Solubility [2] was 3.6 g per 100 ml.
With `COc1cc(N=Nc2cccc(C(=O)O)c2)c(NC(C)=O)cc1N=Nc1c(S(=O)(=O)O)cc2ccc(NCCC(=O)O)cc2c1O` [Compound 13, reference compound] the “HD max in water” value [1] was 488 nm.
In the case of `COc1cc(N=Nc2c(S(=O)(=O)O)cc3ccc(Nc4ccc(C(=O)O)cc4)cc3c2O)c(OC)cc1N=Nc1ccc(C(=O)O)cc1` [Compound 14, reference compound], the “HD max in water” value [1] is reported as 584 nm and the Solubility [2] is reported as 17 g per 100 ml.
In the case of `COc1cc(N=Nc2cccc(C(=O)O)c2)c(C)cc1N=Nc1c(S(=O)(=O)O)cc2ccc(N)cc2c1O` [Compound 15, reference compound], the “HD max in water” value [1] is reported as 557 nm.
